Values joined by “and” are separate entries in the source; they are usually repeats but may differ in a detail not shown here. Equal values may be shown once.
Columns and labels:
Assay type in all cases: cell-based, human
CCD 841 CoN cells = experiment: MTT cell growth inhibition assay, CCD 841 CoN; settings: CCD 841 CoN normal cells, 72 h
Experimental: To assess cell viability, the MTT assay was used. HCT116, H460, CCD 841 CoN and MRC-5 cells (20,000/well and 50,000/well for cancer and normal cells, respectively) were seeded in 24-well plates, and the following UAs were added at concentrations up to 10 μM: C-2028, C-2041, C-2045 and C-2053. Stock solutions (10 mM) were prepared in sterile water, as well as dilutions, also in water. After 72 h, 3-(4, 5-dimethylthiazol-2-yl)-2,5-diphenyltetrazolium bromide (MTT; 800 μg/well) was added for 3 h, then the formazan crystals were dissolved in DMSO, and absorbance was read at 540 nm. Each point was conducted at least 4 times, and data are expressed relative to controls. The concentration of the drug required to inhibit cells growth by 50 (IC50), 80 (IC80) and 90% (IC90) compared to untreated control cells was determined from the curves plotting survival as a function of dose.

HCT116 cells [1] = experiment: Cell cycle analysis (PI, flow cytometry), HCT116; settings: HCT116, IC90 doses; for cells with more than 4N DNA (polyploid): during the time of incubation (time not specified), control 10%
Experimental: After drug treatment, trypsinized and floating cells (2 × 10^6) were pooled, washed twice with ice-cold PBS and fixed in 70% (v/v) ethanol overnight at −20 °C. Cells were stained with propidium iodide (PI) (BD Biosciences, San Jose, CA, USA) and monitored by FACS Accuri C6 (BD Biosciences, San Jose, CA, USA).

HCT116 cells [2] = experiment: Annexin V/PI dual staining, HCT116; settings: HCT116, IC90 doses, 120 h
Experimental: Annexin V–FITC binding was performed with an Annexin-V Fluos Staining kit (BD Biosciences, San Jose, CA, USA) according to manufacturer’s protocol. Briefly, after drug treatment, HCT116 and H460 cells (1 × 10^6) were trypsinized, washed twice with ice-cold PBS, pelleted and resuspended in 100 µL of binding buffer containing Annexin-V–FITC and PI. Cells were incubated for 15 min at room temperature in the dark, then diluted with 400 µL of binding buffer and analyzed by flow cytometry with FACS Accuri C6 (BD, San Jose, CA, USA). Cells with low FITC and PI fluorescence were considered viable. Cells that presented high FITC fluorescence but low PI fluorescence were regarded as early apoptotic. Late apoptotic cells presented high FITC and PI fluorescence. Necrotic cells had low FITC fluorescence and high PI fluorescence.

[3] = tested on: active caspase-3 in HCT116 cells; experiment: Active caspase-3 flow cytometry, HCT116; settings: HCT116, IC90 doses, 120 h
Experimental: (§1) Caspase-3 activity was determined using Alexa Fluor 647-conjugated anti-active caspase-3 antibody (BD Biosciences, San Diego, CA, USA) according to the manufacturer’s instructions. Briefly, HCT116 and H460 cells (1 × 10^6) were trypsinized, pelleted, washed twice with ice-cold PBS and fixed in Fixation Buffer for 20 min on ice. After fixation, cells were rinsed twice with Perm Wash Buffer, stained with Alexa Fluor 647-conjugated anti-active caspase-3 antibody for 30 min, rinsed with Perm Wash Buffer and analyzed by flow cytometry with FACS Accuri C6 (BD, San Jose, CA, USA).

[4] = tested on: cleaved PARP in HCT116 cells; experiment: PARP cleavage flow cytometry, HCT116; settings: HCT116, IC90 doses, up to 120 h
Experimental: as §1, with “PARP cleavage” for “Caspase-3 activity”, “anti-cleaved PARP” for “anti-active caspase-3”

[5] = tested on: cleaved PARP in H460 cells; experiment: PARP cleavage flow cytometry, H460; settings: H460, IC90 doses, 120 h
Experimental: as §1, with “PARP cleavage” for “Caspase-3 activity”, “anti-cleaved PARP” for “anti-active caspase-3”

HCT116 cells [6] = experiment: Mitochondrial transmembrane potential (JC-1), HCT116; settings: HCT116, IC90 doses, 120 h
Experimental: (§2) Changes in the mitochondrial membrane potential (ΔΨm) were analyzed by flow cytometry using 5,5′,6,6′-tetrachloro-1,1′,3,3′-tetraethylbenzimidazolyl-carbocyanine iodide, JC-1 (BD Biosciences, San Jose, CA, USA) according to manufacturer’s specification. Briefly, after treatment, HCT116 and H460 cells (1 × 10^6) were trypsinized, pelleted, resuspended in media and stained with JC-1 for 15 min at 37 °C. After staining, cells were washed twice with assay buffer and analyzed by flow cytometry with FACS Accuri C6 (BD, San Jose, CA, USA). The loss of ΔΨm was monitored based on the decrease in JC-1 red fluorescence concurrent with the increase in green fluorescence.

H460 cells = experiment: Mitochondrial transmembrane potential (JC-1), H460; settings: H460, IC90 doses, 120 h
Experimental: as §2

HCT116 cells [7] = experiment: Colony-forming assay, HCT116; settings: HCT116, 120 h treatment at IC90 doses, about 250 cells cultured two weeks in fresh medium
Experimental: The ability of cells to return to proliferation after UAs treatment was measured by a colony-forming assay. After drug treatment, 250 HCT116 and H460 cells were harvested and seeded in a new 6-well plate containing fresh medium without the drug and incubated for two weeks. Untreated cells were used as controls. After two weeks, colonies were fixed with 80% ethanol, stained with crystal violet, counted, and photos were taken.

HCT116 cells [8] = experiment: Nuclear morphology (Hoechst 33342), HCT116; settings: HCT116, IC90 doses, 72 h
Experimental: Nuclear morphology was examined under a fluorescence microscope (OLYMPUS BX60, […]) after staining with Hoechst 33342. Briefly, after drug treatment, HCT116, H460, CCD 841 CoN and MRC-5 cells were spun onto microscopic slides, fixed with methanol:acetic acid (3:1) for 15 min and stained with Hoechst 33342 (1 mg/mL) for 15 min. Cells were regarded as apoptotic based on the presence of condensed, fragmented chromatin. Enlarged cells containing multiple nuclei were considered as typical of mitotic catastrophe.

Compound | IC90 (CCD 841 CoN cells; Homo sapiens) [µM] | IC50 (CCD 841 CoN cells; Homo sapiens, CCD-841CoN) [µM] | Poli (polyploid cells) (HCT116 cells [1]; 24 h) [%] | cells in G1 (HCT116 cells [1]; 24 h) | cells in G2/M (HCT116 cells [1]; 24 h) [%] | cells in S (HCT116 cells [1]; 24 h) | cells in Sub-G1 (HCT116 cells [1]; 24 h) [%] | Poli (polyploid cells) (HCT116 cells [1]; 72 h) [%] | cells in G1 (HCT116 cells [1]; 72 h) [%] | cells in G2/M (HCT116 cells [1]; 72 h) [%] | cells in S (HCT116 cells [1]; 72 h) [%] | cells in Sub-G1 (HCT116 cells [1]; 72 h) [%] | Poli (polyploid cells) (HCT116 cells [1]; 120 h) [%] | cells in G1 (HCT116 cells [1]; 120 h) | cells in G2/M (HCT116 cells [1]; 120 h) [%] | cells in S (HCT116 cells [1]; 120 h) [%] | cells with more than 4N DNA (polyploid) (HCT116 cells [1]) [%] | annexin V positive cells (early and late apoptotic) (HCT116 cells [2]) | cells with active caspase-3 [3] | cells with cleaved PARP [4] | also measured
CN(CCCNc1c2ccccc2nc2cccc([N+](=O)[O-])c12)CCCNc1ccc2ncn3c4ccccc4c(=O)c1c23 [Compound C-2028] | 3.69 ± 1.08 | ~0.02 | 5.73 ± 0.93 | 24.89 ± 3.90% | 45.89 ± 3.13 | 19.33 ± 1.58% | 3.37 ± 0.69 | 5.11 ± 1.54 | 28.63 ± 5.96 | 21.02 ± 4.86 | 7.67 ± 2.54 | 36.97 ± 8.93 | 5.73 ±2.33 | 25.39 ± 3.25% | 26.26 ± 4.90 | 4.95 ± 1.90 | 5 | 26.1% | 34.8% and 40% | approximately 10% | IC50 (CCD 841 CoN cells): 0.025 ± 0.007 µM; cells in Sub-G1 (HCT116 cells [1]; 120 h): 37.46 ± 9.35% and 37.5% and 30%; cells in G2/M (4N DNA) (HCT116 cells [1]; during the treatment after accumulation at 24 h (time not specified)): ~23%; cells with cleaved PARP [5]: about 20%; cells with decreased mitochondrial transmembrane potential (ΔΨm) (HCT116 cells [6]): 34.3% and 30%; cells with decreased mitochondrial transmembrane potential (ΔΨm) (H460 cells): 44.3%; number of colonies (HCT116 cells [7]): one
O=c1c2ccccc2n2cnc3ccc(NCCCN4CCN(CCCNc5c6ccccc6nc6cccc([N+](=O)[O-])c56)CC4)c1c32 [Compound C-2041] | 5.12 ± 1.09 | 0.036 ± 0.005 | 4.22 ± 2.00 | 28.75 ± 3.88% and 29% | 29.92 ± 4.56 | 25.97 ± 2.80% and 26% | 11.81 ± 1.94 | 4.47 ± 2.13 | 22.16 ± 5.06 | 14.29 ± 1.52 | 9.59 ± 2.24 | 48.83 ± 7.71 | 4.64 ± 2.56 | 13.63 ± 3.71% and 13.6% | 9.44 ± 3.88 | 3.25 ± 1.05 | 5 | approximately 43% | 39.5% and 40% | approximately 10% | apoptotic cells (nuclear morphology) (HCT116 cells [8]): 29.4%; cells with cleaved PARP [5]: about 20%; cells with decreased mitochondrial transmembrane potential (ΔΨm) (HCT116 cells [6]): around 70%; cells with decreased mitochondrial transmembrane potential (ΔΨm) (HCT116 cells [6]; listed as C-1041): 63.0%; cells with decreased mitochondrial transmembrane potential (ΔΨm) (H460 cells): 46.8%; number of colonies (HCT116 cells [7]): 7 colonies

Source: paper PMC8955938, “c-Myc Protein Level Affected by Unsymmetrical Bisacridines Influences Apoptosis and Senescence Induced in HCT116 Colorectal and H460 Lung Cancer Cells” (International Journal of Molecular Sciences, 2022)
